This is an account of results in patent US11583588B2, “Modular self assembly disassembly (SADA) technologies” (MEMORIAL SLOAN KETTERING CANCER CENTER, priority 2017, dated 2023).

Data set [1] can be described thus: Blood and tumor activity after P53-BiDE(noHIS) and 177Lu-Bn-DOTA administration (FIG. 6A, 6D, 6E). Type of data set: in vivo, mice. Conditions: 177Lu-Bn-DOTA only. As for the experimental part: FIG. 6A to FIG. 6E depict pharmacokinetics of exemplary SADA-BiDE constructs in vivo. FIG. 6A depicts activity over time after P53-BiDE(noHIS) and Bn-DOTA administration. Each line represents one group, with three mice per group. Triangles denote a group that received P53-BiDE(noHIS) followed by clearing agent (CA) 72 hours later. Squares denote a group that received P53-BiDE(noHIS) without any clearing agent before ^177Lu-Bn-DOTA administration. Circles denote a group that only received ^177Lu-Bn-DOTA but not any SADA-BiDE. Dashed lines correspond to the measured blood activity, while solid lines correspond to the activity measured in the tumor. […] FIG. 6B depicts blood activity of radiolabeled 131I-SADA-BiDE in tumor-free mice. Activity measurements were normalized to the initial measurement for each group. Each line represents one group, with 4-5 mice per group. (+) symbols denote P53-BiDE, (X) symbols denote P63-BiDE and circles denote P73-BiDE. […]
Importantly, even though, as described in the previous examples, P53-BIDE(NOHIS), P53-BiDE, P63-BiDE and P73-BiDE is rapidly cleared from the serum, total tumor uptake of was not affected. With both 24 hours and 72 hours between P53-BIDE(NOHIS) and ^177Lu-Bn-DOTA injections, significant activity (˜15% ID/g) was measured at the tumor site (FIG. 6D) […]

Data set [2] is described as follows: Clearance of unbound injected Bn-DOTA in a tumor free mouse. Type of data set: in vivo. Conditions: within four hours. As for the experimental part: In a tumor free mouse, over 99% of unbound injected Bn-DOTA typically clears from the murine serum within four hours, with the vast majority of it being excreted in the urine within the first 30 minutes. In contrast, previous studies have shown that between 3 to 5% of directly labeled IgG will remain in the blood 48 hours after injection. (Azzopardi, N. et al. (2011) Clin Cancer Res 17, 6329-6337).

For data set [3] the following is noted: 37° C., cited from earlier work.

Read-outs that look alike come from different tables or passages of the source.

As for `O=C(O)CN1CCN(CC(=O)O)CCN(CC(=O)O)C(Cc2ccccc2)CN(CC(=O)O)CC1` (stereo not shown) [Bn-DOTA, Benzyl-1,4,7,10-tetraazacyclododecane-1,4,7,10-tetraacetic acid, reference compound], the “tumor activity, Bn-DOTA alone without SADA-BiDE” value in data set [1] is reported as “no tumor activity was detected”. Also, the “unbound injected Bn-DOTA cleared from murine serum” value in data set [2] was “over 99%”.

Consider “Tetramerization domain of p53 (residues 321-359): Human p53 tetramerization domain (321-359), SADA domain; SEQ ID NO: 1”, for which the Kd in data set [3] (read-out: dissociation constant (KD), tetramers dissociating into dimers) is 150 nM; in data set [3] (read-out: dissociation constant of dimers into monomers), 1 nM.
